# Assay results from PubChem BioAssay AID1745844 (Carcinogenic Potency Database (CPDB), 2022).
# Active and inactive are the calls of the source. No rule for the calls is given here.
# Test system: rodent lifetime carcinogenesis bioassay, tumor incidence TD50
# Test: chronic cancer bioassays in animals – CPDB, compiled studies (AID 1745844)
# Settings: for carcinogen call: strain Swiss/H/Riop, dosed 52 weeks
smiles,measurement,setting,value
Clc1cc2c(cc1Cl)Oc1cc(Cl)c(Cl)cc1O2,TD50,"mouse, strain B6C3F1, females, by gavage, site: all sites, lesion: leukemia + lymphoma, dosed 104 weeks, study length 104 weeks",0.000709 mg/kg/day
same,TD50,"mouse, strain B6C3F1, females, by gavage, site: all sites, lesion: lymphoma, histiocytic type, dosed 104 weeks, study length 104 weeks",0.000705 mg/kg/day
same,TD50,"mouse, strain B6C3F1, females, by gavage, site: all sites, lesion: lymphoma, dosed 104 weeks, study length 104 weeks",0.000682 mg/kg/day
same,TD50,"mouse, strain B6C3F1, females, by gavage, site: any site (literature study), lesion: several types, types named in the paper, dosed 104 weeks, study length 104 weeks",0.000494 mg/kg/day
same,TD50,"mouse, strain B6C3F1, females, by gavage, site: liver + thyroid gland, lesion: hepatocellular adenoma + hepatocellular carcinoma + follicular-cell adenoma, dosed 104 weeks, study length 104 weeks",0.000526 mg/kg/day
same,TD50,"mouse, strain B6C3F1, females, by gavage, site: liver, lesion: hepatocellular adenoma + hepatocellular carcinoma + neoplastic nodule, dosed 104 weeks, study length 104 weeks",0.000756 mg/kg/day
same,TD50,"mouse, strain B6C3F1, females, by gavage, site: liver, lesion: hepatocellular adenoma + hepatocellular carcinoma, dosed 104 weeks, study length 104 weeks",0.000756 mg/kg/day
same,TD50,"mouse, strain B6C3F1, females, by gavage, site: liver, lesion: hepatocellular carcinoma, dosed 104 weeks, study length 104 weeks",0.0013 mg/kg/day
same,TD50,"mouse, strain B6C3F1, females, by gavage, site: subcutaneous tissue, lesion: fibrosarcoma, dosed 104 weeks, study length 104 weeks",0.00172 mg/kg/day
same,TD50,"mouse, strain B6C3F1, females, by gavage, site: thyroid gland, lesion: follicular-cell adenoma, dosed 104 weeks, study length 104 weeks",0.00159 mg/kg/day
same,TD50,"mouse, strain B6C3F1, males, by gavage, site: any site (literature study), lesion: several types, types named in the paper, dosed 104 weeks, study length 104 weeks",0.000141 mg/kg/day
same,TD50,"mouse, strain B6C3F1, males, by gavage, site: liver, lesion: hepatocellular adenoma + hepatocellular carcinoma + neoplastic nodule, dosed 104 weeks, study length 104 weeks",8.68e-05 mg/kg/day
same,TD50,"mouse, strain B6C3F1, males, by gavage, site: liver, lesion: hepatocellular adenoma + hepatocellular carcinoma, dosed 104 weeks, study length 104 weeks",8.68e-05 mg/kg/day
same,TD50,"mouse, strain B6C3F1, males, by gavage, site: liver, lesion: hepatocellular adenoma, dosed 104 weeks, study length 104 weeks",0.000271 mg/kg/day
same,TD50,"mouse, strain B6C3F1, males, by gavage, site: liver, lesion: hepatocellular carcinoma, dosed 104 weeks, study length 104 weeks",0.000147 mg/kg/day
same,TD50,"mouse, strain B6C3F1, males, by gavage, site: lung, lesion: alveolar/bronchiolar adenoma + alveolar/bronchiolar carcinoma, dosed 104 weeks, study length 104 weeks",0.000198 mg/kg/day
same,TD50,"mouse, strain B6C3F1, males, by gavage, site: lung, lesion: alveolar/bronchiolar adenoma, dosed 104 weeks, study length 104 weeks",0.000219 mg/kg/day
same,carcinogen call,"mouse, males, by gavage, site: liver, lesion: several types, types named in the paper, study length 104 weeks",positive
same,carcinogen call,"mouse, males, by gavage, site: lung, lesion: one or several types, types not named, study length 104 weeks",negative (inactive)
same,TD50,"rat, strain Osborne-Mendel, females, by gavage, site: any site (literature study), lesion: several types, types named in the paper, dosed 104 weeks, study length 105 weeks",0.00158 mg/kg/day
same,TD50,"rat, strain Osborne-Mendel, females, by gavage, site: liver, lesion: hepatocellular adenoma + hepatocellular carcinoma + neoplastic nodule, dosed 104 weeks, study length 105 weeks",0.000127 mg/kg/day
same,TD50,"rat, strain Osborne-Mendel, females, by gavage, site: liver, lesion: hepatocellular carcinoma + neoplastic nodule, dosed 104 weeks, study length 105 weeks",0.000127 mg/kg/day
same,TD50,"rat, strain Osborne-Mendel, females, by gavage, site: liver, lesion: neoplastic nodule, dosed 104 weeks, study length 105 weeks",0.000154 mg/kg/day
same,TD50,"rat, strain Osborne-Mendel, males, by gavage, site: adrenal gland, lesion: cortical adenoma, dosed 104 weeks, study length 105 weeks",1.21e-05 mg/kg/day
same,TD50,"rat, strain Osborne-Mendel, males, by gavage, site: any site (literature study), lesion: several types, types named in the paper, dosed 104 weeks, study length 105 weeks",0.000133 mg/kg/day
same,TD50,"rat, strain Osborne-Mendel, males, by gavage, site: liver, lesion: hepatocellular adenoma + hepatocellular carcinoma + neoplastic nodule, dosed 104 weeks, study length 105 weeks",0.000391 mg/kg/day
same,TD50,"rat, strain Osborne-Mendel, males, by gavage, site: liver, lesion: hepatocellular carcinoma + neoplastic nodule, dosed 104 weeks, study length 105 weeks",0.000391 mg/kg/day
same,TD50,"rat, strain Osborne-Mendel, males, by gavage, site: liver, lesion: neoplastic nodule, dosed 104 weeks, study length 105 weeks",0.000391 mg/kg/day
same,TD50,"rat, strain Osborne-Mendel, males, by gavage, site: subcutaneous tissue, lesion: fibroma, dosed 104 weeks, study length 105 weeks",0.000169 mg/kg/day
same,TD50,"rat, strain Osborne-Mendel, males, by gavage, site: thyroid gland, lesion: follicular-cell adenoma + follicular-cell carcinoma, dosed 104 weeks, study length 105 weeks",0.000101 mg/kg/day
same,TD50,"rat, strain Osborne-Mendel, males, by gavage, site: thyroid gland, lesion: follicular-cell adenoma, dosed 104 weeks, study length 105 weeks",0.000113 mg/kg/day
same,TD50,"rat, strain Sprague-Dawley Spartan, females, in feed, site: hard palate/nasal turbinates, lesion: squamous-cell carcinoma, stratified, dosed 103 weeks, study length 103 weeks",0.000205 mg/kg/day
same,TD50,"rat, strain Sprague-Dawley Spartan, females, in feed, site: liver, lesion: hepatocellular carcinoma, dosed 103 weeks, study length 103 weeks",6.51e-05 mg/kg/day
same,TD50,"rat, strain Sprague-Dawley Spartan, females, in feed, site: liver, lesion: hepatocellular hyperplastic nodule, dosed 103 weeks, study length 103 weeks",6.67e-06 mg/kg/day
same,TD50,"rat, strain Sprague-Dawley Spartan, females, in feed, site: liver, lesion: several types, types named in the paper, dosed 103 weeks, study length 103 weeks",1.49e-05 mg/kg/day
same,TD50,"rat, strain Sprague-Dawley Spartan, females, in feed, site: lung, lesion: squamous-cell carcinoma, keratinized, dosed 103 weeks, study length 103 weeks",0.000192 mg/kg/day
same,TD50,"rat, strain Sprague-Dawley Spartan, males, in feed, site: adrenal gland, lesion: cortical adenoma, dosed 103 weeks, study length 103 weeks",0.000217 mg/kg/day
same,TD50,"rat, strain Sprague-Dawley Spartan, males, in feed, site: hard palate/nasal turbinates, lesion: squamous-cell carcinoma, stratified, dosed 103 weeks, study length 103 weeks",0.000393 mg/kg/day
same,TD50,"rat, strain Sprague-Dawley Spartan, males, in feed, site: tongue, lesion: squamous-cell carcinoma, stratified, dosed 103 weeks, study length 103 weeks",0.000628 mg/kg/day
same,TD50,"rat, strain Sprague-Dawley, males, in feed, site: liver, lesion: several types, types named in the paper, dosed 78 weeks, study length 95 weeks",8.31e-05 mg/kg/day
same,TD50,"rat, strain Sprague-Dawley, males, in feed, site: lung, lesion: squamous-cell tumor, dosed 78 weeks, study length 95 weeks",7.96e-05 mg/kg/day
